Experimental data taken from patent publication US10420786B2, “Compositions for use in cardioplegia comprising esmolol and adenosine” (AOP ORPHAN IP AG, priority 2009, dated 2019).
Where two headings read alike, the source gives them in different places.

Tests used:
[1] = cited from earlier work
[2] = test system: heart; assay: Arrest by esmolol on its own (applicant's finding); details: esmolol 0.75 mmol/L on its own
[3] = test system: Langendorff perfused rat heart; assay: Reversibility of esmolol: treatment for 10 minutes then washout without ischaemia
Description: All the following experiments performed in a Langendorff perfused rat heart.
The first study is to determine the reversibility of esmolol at different concentrations after treatment with esmolol for 10 minutes then washout without ischaemia and LVDP was measured 9 minutes after starting the treatment and 3 minutes and 15 minutes after washing out the drug. The following doses were studied 0.03, 0.1, 0.3, 1, 3 mM. (n=5 each group)
It is therefore decided that esmolol concentration between 0.3 and 1 mM offers reasonable arresting effect with good reversibility profile.

[4] = pH 7.0; cited from earlier work
[5] = test system: Langendorff perfused rat hearts; details: cited from earlier work

Structure (SMILES)	solubility in alcohol [1]	solubility in water [1]	induction of effective arrest [2]	reversibility (LVDP recovery) profile after washout ([3]; 0.3 mM compared with 1 mM esmolol)	esmolol concentration required to induce arrest ([3]; esmolol alone, doses 0.03, 0.1, 0.3, 1, 3 mM)	partition coefficient (octanol/water) [4]	reversibility of arrest ([5]; esmolol 0.75 mmol/L)	reversibility of arrest ([5]; esmolol 1.5 mmol/L)	esmolol concentration that can cause cardiac arrest ([5]; in-vitro studies)
COC(=O)CCc1ccc(OCC(O)CNC(C)C)cc1.Cl (racemic) [Esmolol, (±)-Methyl p-[2-hydroxy-3-(isopropylamino)propoxy] hydrocinnamate hydrochloride]	freely soluble	very soluble	not sufficient to induce effective arrest	better reversibility (LVDP recovery) profile	1 mM	0.42	easily reversible	slowly reversible with poor recovery	higher than 1 mmol/L
Nc1ncnc2c1ncn2[C@@H]1O[C@H](CO)[C@@H](O)[C@H]1O [Adenosine, (2R,3R,4S,5R)-2-(6-amino-9H-purin-9-yl)-5-(hydroxymethyl)oxolane-3,4-diol]	practically insoluble	soluble							
CC(C)NCC(O)COc1cccc2ccccc12 (stereo not drawn) [propranolol]						17.0			
